Measurements taken from patent publication US20150064221A1, “COMPOUNDS HAVING IMMUNOMUDULATOR ACTIVITY” (priority 2012, published 2015).
Entries after “also recorded” stand apart in the source; their conditions may differ.

Key:
LPS-induced lethality = experiment: LPS-induced lethality; assay type: in vivo, mice
Method: VGX-1027 was administered intraperitoneally (A) or orally (p.o.) (B), and its effect on cumulative rate of lethality induced by LPS was evaluated. Data from 2 to 3 independent experiments are shown. Statistical analysis was performed by logrank (Mantel-Cox). *p<0.05 was taken as significant. Each group is compared to the vehicle-treated group.
As expected, most of the control mice either untreated or that received the vehicle of VGX-1027 succumbed to LPS-challenge within 3 days. […] In contrast, the treatment with VGX-1027 given either orally or intraperitoneally administration protect the mice from the lethal effects of LPS in a dose-dependent fashion. When given orally, VGX-1027 was effective at the dose of […] and […] both at 1.5 and 3 mg/mouse.
Lipopolysaccharide (LPS) is the most studied of all TLR agonists because it induces both local and systemic inflammation, and responses to LPS mimic many of the features of tissue injury observed during infections with Gram-negative bacteria. Injection of LPS into mice triggers production of inflammatory cytokines and symptoms that are indistinguishable from those of septic shock.

[1] = test system: 30 primary molecular targets; experiment: Radioligand binding assay (MDS Pharma HitProfiling Screen); details: 30 targets, concentrations up to 10 μM; significant = ≧50% inhibition or stimulation
Method: VGX-1027 was negative in a radioligand binding assay (MDS Pharma HitProfiling Screen) that tested 30 primary molecular targets at concentrations up to 10 μM. No significant response (≧50% inhibition or stimulation for Biochemical assays) were noted.

Oral absorption in mice = assay type: in vivo
Method: (§1) The highest plasma concentrations generally occurred in 1-2 hours. […] The highest level of inhibition was ˜35% for 2C19 at a 30 μM concentration. […] Lastly, VGX-1027 is stable in human liver S9 fractions (with phase 1 and 2 cofactors) with t1/2>90 minutes, which indicates a low likelihood of metabolism in the liver.

[2] = Plasma pharmacokinetics after intraperitoneal administration; assay type: in vivo; details: mouse, ip, mice, i.p. 20 mg/kg
Method: To determine the pharmacokinetic properties of VGX-1027, drug concentrations were analyzed in the plasma of mice. The drug was measured post intraperitoneum administration at 20 mg/kg […] in 500 mM Na2HPO4, which is a therapeutically active concentration. […] Based on the linear part of the pharmacokinetic profile, the t1/2 of VGX-1027 is approximately 90 minutes.

[3] = test system: U937s, RAWs, primary monocytes, PBMCs, Jurkats, undifferentiated CD4 T cells, 293Ts, RD cells; experiment: LPS-induced TNF-α production in different cell types; assay type: cell-based
Method: (A) Cell viability was measured via the MTT assay after 48 hours of treatment. (B) TNF-α levels were measured 48 hours post LPS (5 μg/ml) stimulation. (C) CD4 T cells were stimulated with either ConA (10 μg/ml) or anti-CD3/CD28 beads (10 μg/ml), and proliferation was measured via 3H-thymidine incorporation.
Next, the production of TNF-α was measured following LPS stimulation in these different cell types. […] VGX-1027-induced effects were not observed.

COX-1 = COX-1 (Homo sapiens, UniProt P23219); experiment: COX-1 activity; assay type: biochemical
Method: as §1

[4] = Twenty-eight day toxicology study in mice; assay type: in vivo; details: 28 days, highest dose 500 mg/kg/day
Method: Twenty-eight day toxicology studies were performed in both mice and dogs with increasing concentration to achieve toxicity. The following are the results of those studies.

DNBS-induced colitis = experiment: DNB/DNBS-induced colitis; assay type: in vivo, mice
Method: Mice were injected with DNBS into the rectum and administered VGX-1027 an hour later; 4 days after, the mice were sacrificed, and the colons were isolated and analyzed. Variation in total body weight (A), stool consistency (B), macroscopic score (C), necrotic areas 9D), colon weight (E), and amount of cytokines in colon homogenate were determined Macroscopic score was determined by the following criteria: 0=no damage; 1=localized hyperaemia and/or oedema; 2=linear ulcer<half of the width of the colon; 3=linear ulcer>half the width of the colon; 4=circular ulcer<1 cm; 5=circular ulcer between 1 and 2 cm; 6=circular ulcer>2 cm.
Within 5 days after challenge with dinitrobenzene sulfonic acid (DNB), mice develop colitis. The disease severity is evaluated based on a macroscopic score. The vehicle-treated control mice and untreated mice developed colitis with a predictable and progressive increase in inflammation and body weight loss.
The colons of the control mice and of the VGX-1027 treated mice were removed, sectioned, fixed, and stained with hematoxylin and eosin. […] The tissue myeloperoxidase activity is a well established marker to assess the inflammatory cell (mainly neutrophils) infiltration. […] We counted an average of 8.9±1.2 (means±SD) cells/high power field of DNB-induced animals, whereas there were only 3.37±0.8 cells/high-power field in DNB-induced animals pretreated with VGX-1027 (p<0.0001).
DNBS challenge of mice induced clinical features of colitis including weight loss, diarrhea, intestinal damage, and necrotic regions (FIG. 11a-d). […] An increase in the weight of the colon is an indirect measure of increased thickness of the walls due to inflammation.

Rising MTD study in mice = details: mouse, in vivo, 1000 mg/kg/day, read-out: Approximate Cmax
Method: (Approximate Cmax@ [1000 mg/kg/day] was […]). Based on these studies, 10 mg was determined to be a safe starting dose in the human study.

[5] = DNBS, treatment from 1 hour after DNBS

Chain of COX-1 (P23219 24-599): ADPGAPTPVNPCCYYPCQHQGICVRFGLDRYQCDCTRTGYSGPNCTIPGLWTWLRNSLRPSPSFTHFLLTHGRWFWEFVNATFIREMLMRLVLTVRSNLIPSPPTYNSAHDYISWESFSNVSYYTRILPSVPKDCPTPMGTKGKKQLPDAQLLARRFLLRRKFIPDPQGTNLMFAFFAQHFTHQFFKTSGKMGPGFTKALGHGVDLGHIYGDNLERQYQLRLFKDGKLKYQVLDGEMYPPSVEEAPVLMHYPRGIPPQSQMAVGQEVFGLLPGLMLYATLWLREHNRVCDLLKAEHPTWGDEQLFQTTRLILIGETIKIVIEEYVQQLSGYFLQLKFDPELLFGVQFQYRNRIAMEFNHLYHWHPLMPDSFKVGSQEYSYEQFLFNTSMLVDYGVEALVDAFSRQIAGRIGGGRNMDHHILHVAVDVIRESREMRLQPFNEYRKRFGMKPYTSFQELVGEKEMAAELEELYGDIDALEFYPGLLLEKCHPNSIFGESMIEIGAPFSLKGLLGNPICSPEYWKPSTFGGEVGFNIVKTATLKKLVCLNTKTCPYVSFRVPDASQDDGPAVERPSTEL

O=C(O)CC1CC(c2ccccc2)=NO1 (centres unmarked) [VGX-1027, 3-phenyl-4,5-dihydro-5-isoxazoleacetic acid]
protection from LPS lethality (LPS-induced lethality; i.p., between 0.25 and 0.5 mg/mouse): dose-dependent protection
survival (LPS-induced lethality; lethal dose of LPS (1 mg/mice), i.p. or oral): increased the survival
protection from LPS lethality (LPS-induced lethality; oral, 2.5 mg/mouse): effective
protection from LPS lethality (LPS-induced lethality; oral, 1.5 and 3 mg/mouse): dosed out
LPS-induced lethality (LPS-induced lethality; prophylactic regime (−24 and −1 hour prior to LPS), oral and i.p.): significantly reducing
LPS-induced lethality (LPS-induced lethality; therapeutic administration): powerfully counteracts
radioligand binding result [1]: negative
oral absorption (Oral absorption in mice): rapidly absorbed
time of highest plasma concentrations (Oral absorption in mice): 1 to 2 h
Tmax ([2]; 20 mg/kg): 2 h
concentration at 6 h ([2]; after 6 hours post injection, read-out: plasma drug concentration): < 10 µg/mL
concentration at 30 min ([2]; by 30 minutes post injection, read-out: plasma drug concentration): > 80 µg/mL
half-life ([2]; linear part of the profile): ~1.5 h
Cmax ([2]; read-out: peak plasma concentration (Cmax)): 130 µg/mL
TNF-α production ([3]; 293Ts): did not affect
TNF-α production ([3]; Jurkats): did not affect
LPS-induced TNF-α production ([3]; PBMCs): inhibited
LPS-induced TNF-α production ([3]; RAWs): inhibited
TNF-α production ([3]; RD cells): did not affect
LPS-induced TNF-α production ([3]; U937s): inhibited
LPS-induced TNF-α production ([3]; primary monocytes): inhibited
TNF-α production ([3]; undifferentiated CD4 T cells): did not affect
inhibition of COX-1 activity (COX-1): no significant inhibition
toxicology findings [4]: notable changes found in kidneys, liver, spleen, testis, epidydimus and bladder
increase in colon weight (DNBS-induced colitis; DNB colitis): significantly lower
weight loss (DNBS-induced colitis; DNB colitis): significant reduction
tissue damage (histology) (DNBS-induced colitis; DNB colitis, treated before induction): significantly reduced
progression of inflammatory colitis (DNBS-induced colitis; DNB, p<0.001): significantly attenuated
neutrophils infiltrating (DNBS-induced colitis; DNB-induced animals pretreated, means±SD): 3.37±0.8 cells/high-power field
IL-18 in colon homogenates (DNBS-induced colitis; [5]): decreased amounts
TNF-α in colon homogenates (DNBS-induced colitis; [5]): decreased amounts
colon weight (DNBS-induced colitis; [5]): decreased
features of colitis / degree of protection (DNBS-induced colitis; DNBS, treatment from 1 hour after until 4 days after DNBS): markedly improved; also recorded: comparable to that afforded by 1 mg/kg of dexamethasone
inflammatory cell infiltration (myeloperoxidase activity) (DNBS-induced colitis; colon tissue, 5 days after induction, p<0.0001): significant reduction
Cmax (Rising MTD study in mice): ~400 µg/mL
